Results reported in PubChem BioAssay (NCI).
Several values for one entry are separate records, joined by “and”; a condition that tells them apart may be missing. Identical values can stand only once.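 Cultured in 96-well plates, cells were exposed to test compound for 48 hours across five concentrations. GI50 = concentration required for 50% inhibition of growth. TGI marks complete inhibition of growth.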

What was measured:
Assay in all cases: NCI anticancer screen, dose series, 48 h
A549 NSCLC = system: A549 NSCLC
HCC-2998 colon = system: HCC-2998 colon
SN12C renal = system: SN12C renal
SNB-19 CNS = system: SNB-19 CNS
SW-620 colon = system: SW-620 colon
M14 melanoma = system: M14 melanoma
MALME-3M melanoma = system: MALME-3M melanoma
U251 CNS = system: U251 CNS
HT29 colon = system: HT29 colon
786-0 renal = system: 786-0 renal
T-47D breast = system: T-47D breast
NCI-H522 lung = system: NCI-H522 lung
OVCAR-8 ovarian = system: OVCAR-8 ovarian
OVCAR-5 ovarian = system: OVCAR-5 ovarian
SR leukemia = system: SR leukemia
KM12 colon = system: KM12 colon
CAKI-1 renal = system: CAKI-1 renal
SF-268 CNS = system: SF-268 CNS
IGROV1 ovarian = system: IGROV1 ovarian
A498 renal = system: A498 renal
UACC-62 melanoma = system: UACC-62 melanoma
SNB-75 CNS = system: SNB-75 CNS
HS 578T breast = system: HS 578T breast
EKVX NSCLC = system: EKVX NSCLC
HCT-15 colon = system: HCT-15 colon
HL-60(TB) leukemia = system: HL-60(TB) leukemia
TK-10 renal = system: TK-10 renal
UO-31 renal = system: UO-31 renal
NCI/ADR-RES ovarian = system: NCI/ADR-RES ovarian
HOP-92 NSCLC = system: HOP-92 NSCLC
MCF7 breast = system: MCF7 breast
MOLT-4 leukemia = system: MOLT-4 leukemia
SK-MEL-2 melanoma = system: SK-MEL-2 melanoma
LOX IMVI melanoma = system: LOX IMVI melanoma
RXF 393 renal = system: RXF 393 renal
SF-295 CNS = system: SF-295 CNS
NCI-H226 lung = system: NCI-H226 lung
MDA-MB-231 breast = system: MDA-MB-231 breast
MDA-MB-435 = system: MDA-MB-435
COLO 205 colon = system: COLO 205 colon
SK-MEL-5 melanoma = system: SK-MEL-5 melanoma
PC-3 prostate = system: PC-3 prostate
NCI-H23 lung = system: NCI-H23 lung
HCT-116 colon = system: HCT-116 colon
DU-145 prostate = system: DU-145 prostate
UACC-257 melanoma = system: UACC-257 melanoma
SF-539 CNS = system: SF-539 CNS
HOP-62 NSCLC = system: HOP-62 NSCLC
CCRF-CEM leukemia = system: CCRF-CEM leukemia
RPMI-8226 leukemia = system: RPMI-8226 leukemia
SK-OV-3 ovarian = system: SK-OV-3 ovarian
OVCAR-4 ovarian = system: OVCAR-4 ovarian
MDA-N = system: MDA-N
K-562 leukemia = system: K-562 leukemia
NCI-H460 lung = system: NCI-H460 lung
ACHN renal = system: ACHN renal
SK-MEL-28 melanoma = system: SK-MEL-28 melanoma
BT-549 breast = system: BT-549 breast
OVCAR-3 ovarian = system: OVCAR-3 ovarian

CC1(C)OCC(C2OC(=O)C(OCc3ccccc3)=C2OCc2ccccc2)O1 (stereo not given)
TGI (A549 NSCLC): > 100 µM | TGI (HCC-2998 colon): > 100000 nM | TGI (SN12C renal): > 100000 nM | TGI (SNB-19 CNS): > 100 µM | TGI (SW-620 colon): > 100000 nM | TGI (M14 melanoma): > 100000 nM | TGI (MALME-3M melanoma): 93900 nM | TGI (U251 CNS): > 100000 nM | TGI (HT29 colon): > 100 µM | TGI (786-0 renal): > 100000 nM | TGI (T-47D breast): > 100000 nM | TGI (NCI-H522 lung): 78400 nM | TGI (OVCAR-8 ovarian): > 100000 nM | TGI (OVCAR-5 ovarian): > 100 µM | TGI (SR leukemia): > 100000 nM | TGI (KM12 colon): > 100000 nM | TGI (CAKI-1 renal): > 100000 nM | TGI (SF-268 CNS): > 100000 nM | TGI (IGROV1 ovarian): > 100000 nM | TGI (A498 renal): 90500 nM | TGI (UACC-62 melanoma): > 100000 nM | TGI (SNB-75 CNS): > 100 µM | TGI (HS 578T breast): > 100000 nM | TGI (EKVX NSCLC): > 100000 nM | TGI (HCT-15 colon): > 100000 nM | TGI (HL-60(TB) leukemia): 52000 nM | TGI (TK-10 renal): > 100000 nM | TGI (UO-31 renal): > 100000 nM | TGI (NCI/ADR-RES ovarian): > 100000 nM | TGI (HOP-92 NSCLC): > 100000 nM | TGI (MCF7 breast): > 100000 nM | TGI (MOLT-4 leukemia): 73.1 µM | TGI (SK-MEL-2 melanoma): 61 µM | TGI (LOX IMVI melanoma): > 100000 nM | TGI (RXF 393 renal): > 100000 nM | TGI (SF-295 CNS): > 100000 nM | TGI (NCI-H226 lung): > 100 µM | TGI (MDA-MB-231 breast): > 100 µM | TGI (MDA-MB-435): 79400 nM | TGI (COLO 205 colon): 50600 nM | TGI (SK-MEL-5 melanoma): 32300 nM | TGI (PC-3 prostate): 78100 nM | TGI (NCI-H23 lung): 92500 nM | TGI (HCT-116 colon): > 100000 nM | TGI (DU-145 prostate): > 100000 nM | TGI (UACC-257 melanoma): 96800 nM | TGI (SF-539 CNS): > 100000 nM | TGI (HOP-62 NSCLC): > 100000 nM | TGI (CCRF-CEM leukemia): > 100000 nM | TGI (RPMI-8226 leukemia): 76500 nM | TGI (SK-OV-3 ovarian): > 100000 nM | TGI (OVCAR-4 ovarian): > 100000 nM | TGI (MDA-N): > 100000 nM | TGI (K-562 leukemia): > 100000 nM | TGI (NCI-H460 lung): > 100000 nM | TGI (ACHN renal): > 100000 nM | TGI (SK-MEL-28 melanoma): > 100 µM | TGI (BT-549 breast): 93.2 µM | TGI (OVCAR-3 ovarian): > 100000 nM

CN1CCN(c2ccc([N+](=O)[O-])c3no[n+]([O-])c23)CC1
GI50 (A549 NSCLC): 385 nM | TGI (A549 NSCLC): 3.53 µM and 2.06 µM | GI50 (HCC-2998 colon): 1320 nM | TGI (HCC-2998 colon): 2730 nM | GI50 (SN12C renal): 357 nM | TGI (SN12C renal): 1290 nM and 1370 nM | TGI (SNB-19 CNS): 4.82 µM and 2.24 µM | GI50 (SW-620 colon): 117 nM | TGI (SW-620 colon): 828 nM and 261 nM | GI50 (M14 melanoma): 177 nM | TGI (M14 melanoma): 1700 nM and 927 nM | GI50 (MALME-3M melanoma): 378 nM | TGI (MALME-3M melanoma): 712 nM and 1080 nM | GI50 (U251 CNS): 189 nM | TGI (U251 CNS): 1410 nM and 618 nM | GI50 (HT29 colon): 135 nM | TGI (HT29 colon): 3.43 µM and 0.512 µM | GI50 (786-0 renal): 298 nM | TGI (786-0 renal): 923 nM and 1150 nM | GI50 (T-47D breast): 600 nM | TGI (T-47D breast): 1160 nM and 2650 nM | GI50 (NCI-H522 lung): 115 nM | TGI (NCI-H522 lung): 507 nM and 260 nM | GI50 (OVCAR-8 ovarian): 145 nM | TGI (OVCAR-8 ovarian): 1750 nM and 340 nM | GI50 (OVCAR-5 ovarian): 1490 nM | TGI (OVCAR-5 ovarian): 4.25 µM and 3.27 µM | GI50 (SR leukemia): 20.1 nM | TGI (SR leukemia): 27.4 nM and 93.6 nM | GI50 (KM12 colon): 144 nM | TGI (KM12 colon): 1600 nM and 291 nM | GI50 (CAKI-1 renal): 137 nM | TGI (CAKI-1 renal): 1600 nM and 920 nM | GI50 (SF-268 CNS): 198 nM | TGI (SF-268 CNS): 680 nM and 1120 nM | GI50 (IGROV1 ovarian): 51.6 nM | TGI (IGROV1 ovarian): 919 nM and 362 nM | GI50 (A498 renal): 288 nM | TGI (A498 renal): 2760 nM and 1710 nM | GI50 (UACC-62 melanoma): 471 nM | TGI (UACC-62 melanoma): 2640 nM and 1840 nM | GI50 (SNB-75 CNS): 175 nM | GI50 (HS 578T breast): 228 nM | TGI (HS 578T breast): 2410 nM and 1930 nM | TGI (EKVX NSCLC): 2830 nM and 2920 nM | GI50 (HCT-15 colon): 227 nM | TGI (HCT-15 colon): 2150 nM and 1210 nM | GI50 (HL-60(TB) leukemia): 32.2 nM | TGI (HL-60(TB) leukemia): 157 nM and 155 nM | GI50 (TK-10 renal): 454 nM | TGI (TK-10 renal): 2330 nM and 1490 nM | GI50 (UO-31 renal): 189 nM | TGI (UO-31 renal): 1880 nM and 1140 nM | GI50 (NCI/ADR-RES ovarian): 286 nM | TGI (NCI/ADR-RES ovarian): 2460 nM and 1470 nM | GI50 (HOP-92 NSCLC): 188 nM | TGI (HOP-92 NSCLC): 1200 nM | GI50 (MCF7 breast): 141 nM | TGI (MCF7 breast): 1790 nM and 985 nM | GI50 (MOLT-4 leukemia): 64.5 nM | GI50 (SK-MEL-2 melanoma): 468 nM | TGI (SK-MEL-2 melanoma): 3.01 µM and 1.66 µM | GI50 (LOX IMVI melanoma): 157 nM | TGI (LOX IMVI melanoma): 1140 nM and 612 nM | GI50 (RXF 393 renal): 443 nM | TGI (RXF 393 renal): 1570 nM and 1680 nM | GI50 (SF-295 CNS): 292 nM | TGI (SF-295 CNS): 1820 nM and 1590 nM | GI50 (NCI-H226 lung): 697 nM | TGI (NCI-H226 lung): 3.39 µM and 2.16 µM | TGI (MDA-MB-231 breast): 3.46 µM and 3.65 µM | GI50 (MDA-MB-435): 642 nM | TGI (MDA-MB-435): 2510 nM and 1990 nM | GI50 (COLO 205 colon): 942 nM | TGI (COLO 205 colon): 2330 nM and 2410 nM | GI50 (SK-MEL-5 melanoma): 1040 nM | TGI (SK-MEL-5 melanoma): 2910 nM and 2510 nM | GI50 (PC-3 prostate): 412 nM | TGI (PC-3 prostate): 2210 nM and 1940 nM | GI50 (NCI-H23 lung): 173 nM | TGI (NCI-H23 lung): 389 nM and 1020 nM | GI50 (HCT-116 colon): 152 nM | TGI (HCT-116 colon): 1630 nM and 634 nM | GI50 (DU-145 prostate): 302 nM | TGI (DU-145 prostate): 1990 nM and 1280 nM | GI50 (UACC-257 melanoma): 472 nM | TGI (UACC-257 melanoma): 2690 nM and 1600 nM | GI50 (SF-539 CNS): 246 nM | TGI (SF-539 CNS): 722 nM and 733 nM | GI50 (HOP-62 NSCLC): 318 nM | TGI (HOP-62 NSCLC): 1260 nM and 1390 nM | TGI (CCRF-CEM leukemia): 582 nM | GI50 (RPMI-8226 leukemia): 436 nM | TGI (RPMI-8226 leukemia): 795 nM and 2430 nM | GI50 (SK-OV-3 ovarian): 870 nM | TGI (SK-OV-3 ovarian): 1730 nM and 2120 nM | GI50 (OVCAR-4 ovarian): 444 nM | TGI (OVCAR-4 ovarian): 2540 nM and 1800 nM | TGI (MDA-N): 2740 nM | GI50 (K-562 leukemia): 110 nM | TGI (K-562 leukemia): 979 nM | GI50 (NCI-H460 lung): 118 nM | TGI (NCI-H460 lung): 1170 nM and 764 nM | GI50 (ACHN renal): 158 nM | TGI (ACHN renal): 787 nM and 954 nM | GI50 (SK-MEL-28 melanoma): 991 nM | TGI (SK-MEL-28 melanoma): 5.59 µM and 2.67 µM | GI50 (BT-549 breast): 841 nM | TGI (BT-549 breast): 4.64 µM and 2.12 µM | GI50 (OVCAR-3 ovarian): 241 nM | TGI (OVCAR-3 ovarian): 1290 nM and 753 nM
